Measurements: patent US8946283B2, “Composition for preventing or treating obesity, dyslipidemia, fatty liver or diabetes containing indole-3-carbinol derivative as active ingredient” (Industry-Academic Cooperation Foundation, Yonsei University, priority 2011, dated 2015)

Experiments:
3T3-L1 cells = assay: Inhibition of adipocyte differentiation, Oil Red O staining of triglyceride; assay type: cell-based, mouse; settings: for differentiation of the preadipocytes 3T3L1: 0.1, 1, 10, 50 and 100 μM, 14 days, vs DMSO control; for triglyceride accumulation in cells: 3T3-L1 cells, FIGS. 1-3
Procedure: Mouse adipocyte cell line (3T3-L1) was used to investigate the effect of various indole-3-carbinol derivatives on differentiation and growth of adipocytes. The preadipocytes, 3T3-L1 cells, were seeded on a 12-well plate and cultured to confluency using Dulbecco's modified Eagle's medium (DMEM) containing 1% penicillin-streptomycin, 1% nonessential amino acid and 10% fatal bovine serum (FBS), in a 5% CO2 incubator at 37° C. The 3T3-L1 cells grown to confluency were cultured for 2 days in MDI medium containing 0.5 mM isobutylmethylxanthine, 1 μM dexamethasone and 1 μg/mL insulin to differentiate them into adipocytes. Then, the cells were further cultivated in DMEM containing 1 μg/mL insulin to differentiate them into mature adipocytes. The cells were further cultured for 10 more days while replacing DMEM every other day to obtain fully differentiated adipocytes.
From the first day when MDI was added to the 3T3-L1 cells, 16 indole-3-carbinol derivative compounds were treated at concentrations of 0.1, 1, 10, 50 and 100 μM with 2-day intervals. The structure and molecular weight of the 16 indole-3-carbinol derivatives (B518, B521, B525, B528, B538, B540, B542, B544, B545, B546, B547, B549, B551, B556, B558 and B561) are described in Table 1. The derivative compounds were used after being dissolved in DMSO. Only DMSO was added to the negative control group.
After culturing for a total of 14 days, the medium was removed when the differentiation was completed and lipid droplets in the differentiated adipocytes were stained. For this, the cells were washed twice with phosphate buffered saline (PBS), fixed in 10% buffered neutral formalin (BNF) for 1 hour, washed once again with PBS, stained for 1 hour by adding 1 mL of Oil Red O dye, which specifically stains fat red, on the 12-well plate, and washed twice with distilled water. In order to measure the level of triglyceride contained in the differentiated 3T3-L1 cells, the stained lipid droplets were dissolved in 1 mL of isobutanol and optical density (OD) value was measured at 600 nm.

[1] = Liver weight and lipid level in liver tissue of mice fed high-fat test diet; assay type: in vivo, C57BL/6J mice; settings: 0.05% in high-fat diet, 10 weeks
Procedure: (§1) The obesity-inducing control diet used in the test was high-fat diet (HFD: 40% fat calorie, 17 g lard+3% corn oil/100 g diet). Diets supplemented with indole-3-carbinol derivatives (B525 and B528) had the same composition as HFD, except that each derivative was included at 0.05% (see Table 2). The diabetic drug metformin was added at 0.1% or the hyperlipidemic drug atorvastatin was added at 0.01% to HFD as controls. The normal diet group (Chow) was fed with commercially available rodent chow.
(§2) 56 5-week-old male C57BL/6J mice (Orient, Korea) were accustomed to the laboratory environment for 1 week while feeding solid feed. Then, they were randomly divided into normal diet, high-fat diet and test groups (n=8/group) and bred for a total of 10 weeks. The diet was given between 10 and 11 a.m. every day together with water. Food intake was measured every day and body weight was measured once a week. In order to avoid transient body weight increase after feed intake, body weight was measured 2 hours after removing the feed. After fasting the test animal for at least 12 hours and anesthetizing with diethyl ether, blood, liver and visceral fat (epididymal fat, perirenal fat, mesenteric fat and retroperitoneal fat) were taken and weighed after washing with 0.1 M PBS (pH 7.4). Blood taken from the abdominal aorta was centrifuged at 1000×g for 15 minutes to separate the plasma.
Lipids were extracted from the liver tissue according to Folch et al.'s method Folch J et al., J Biol. Chem. 226: 497-509 (1957)). After adding 1 mL of distilled water to 0.25 g of liver tissue, the liver tissue was homogenized using a Polytron homogenizer (IKA-Werke GmbH & Co., Ultra-Turrax, Staufen, Germany). After adding 5 mL of chloroform:methanol solution (2:1, v/v) to the homogenate and mixing well, the mixture was centrifuged at 1000×g for 10 minutes. After adding 2 mL of chloroform:methanol solution (2:1, v/v) again to the supernatant, the same procedure was repeated to completely separate the lipid components of the liver. After adding 3 mL of chloroform:methanol:0.05% CaCl2 (3:48:47, v/v/v) solution to the remaining pellets and mixing well for 1 minute, followed by centrifugation at 1000×g for 10 minutes, the resulting pellets were completely dried with nitrogen gas. The dried lipids were dissolved in 1 mL of methanol and then analyzed.
The same kit (Bio Clinical System) as that used for the plasma analysis was used to measure the triglyceride and cholesterol levels of the liver tissue.

[2] = Fasting blood sugar and oral glucose tolerance test in mice fed high-fat test diet; assay type: in vivo, C57BL/6J mice
Procedure: as §1, §2
On week 8 after feeding the test diet, oral glucose tolerance test was performed for all the groups. After fasting the mouse for 16 hours, glucose (2 g glucose/10 mL distilled water/kg body weight) was orally administered. Before and 15, 30, 60 and 120 minutes after the oral administration, the tail end was cut by about […] and blood was taken. Glucose level was measured using a glucose meter.

[3] = Biochemical analysis of blood (plasma lipids) of mice fed high-fat test diet; assay type: in vivo, C57BL/6J mice; settings: 0.05% in high-fat diet, 10 weeks
Procedure: as §1, §2
After 10 weeks of breeding, total cholesterol, triglyceride and glucose levels in the plasma and lipid level in the liver tissue were measured as follows. Total cholesterol, triglyceride and free fatty acid levels in the plasma were measured twice for each using a commercially available kit (Bio Clinical System).

[4] = Body weight gain and visceral fat weight of mice fed high-fat test diet; assay type: in vivo, C57BL/6J mice; settings: 0.05% in high-fat diet, 10 weeks
Procedure: as §1, §2

SMILES | differentiation of the preadipocytes 3T3L1 (3T3-L1 cells) | also measured
O=C1N(CCc2ccccc2)c2ccc(Br)cc2C1(O)c1c[nH]c2ccccc12 (stereo not drawn) [B518, 5′-Bromo-3′-hydroxy-1′-(2-phenylethyl)-1′,3′-dihydro-1H,2′H-3,3′-biindol-2′-one] | reduced the differentiation of the preadipocytes 3T3L1 in a concentration-dependent manner | triglyceride accumulation in cells (3T3-L1 cells): effectively reduce triglyceride accumulation in cells
CN1C(=O)C(O)(c2c[nH]c3ccccc23)c2cc(Cl)ccc21 (stereo not drawn) [B521, 5′-Chloro-3′-hydroxy-1′-methyl-1′,3′-dihydro-1H,2′H-3,3′-biindol-2′-one] | reduced the differentiation of the preadipocytes 3T3L1 in a concentration-dependent manner | –
C=CCN1C(=O)C(O)(c2c(C)[nH]c3ccccc23)c2cc(Br)ccc21 (stereo not drawn) [B525, 1′-Allyl-5′-bromo-3′-hydroxy-2-methyl-1′,3′-dihydro-1H,2′H-3,3′-biindol-2′-one] | reduced the differentiation of the preadipocytes 3T3L1 in a concentration-dependent manner | appearance of liver tissue as compared to HFD [1]: smaller and darker liver tissue; decrease of cholesterol level in liver tissue as compared to HFD [1]: 22%; decrease of liver weight as compared to HFD [1]: 26%; decrease of triglyceride level in liver tissue as compared to HFD [1]: 18%; triglyceride accumulation in cells (3T3-L1 cells): effectively reduce triglyceride accumulation in cells; reduction of fasting blood sugar level as compared to HFD ([2]; 0.05% in high-fat diet, 8 weeks): 37%; effect on oral glucose tolerance compared to controls metformin and atorvastatin ([2]; OGTT, week 8): excellent effect of improving oral glucose tolerance, better than the controls metformin and atorvastatin; reduction of arteriosclerotic index in blood plasma as compared to HFD [3]: 30%; reduction of total cholesterol level in blood plasma as compared to HFD [3]: 18%; reduction of triglyceride level in blood plasma as compared to HFD [3]: 32%; decrease of body weight gain as compared to HFD [4]: 21%; reduction of total visceral fat weight as compared to HFD [4]: 20%; weight of epididymal fat, perirenal fat, mesenteric fat and retroperitoneal fat as compared to HFD [4]: significantly reduced
O=C1N(CCc2ccccc2)c2ccccc2C1(O)c1c[nH]c2ccccc12 (stereo not drawn) [B538, 3′-Hydroxy-1′-(2-phenylethyl)-1′,3′-dihydro-1H,2′H-3,3′-biindol-2′-one] | reduced the differentiation of the preadipocytes 3T3L1 in a concentration-dependent manner | triglyceride accumulation in cells (3T3-L1 cells): effectively reduce triglyceride accumulation in cells
CCCCN1C(=O)C(O)(c2c[nH]c3ccccc23)c2cc(Br)ccc21 (stereo not drawn) [B540, 5′-Bromo-1′-butyl-3′-hydroxy-1′,3′-dihydro-1H,2′H-3,3′-biindol-2′-one] | reduced the differentiation of the preadipocytes 3T3L1 in a concentration-dependent manner | –
O=C1N(Cc2ccccc2)c2ccccc2C1(O)c1c[nH]c2ccccc12 (stereo not drawn) [B542, 1′-Benzyl-3′-hydroxy-1′,3′-dihydro-1H,2′H-3,3′-biindol-2′-one] | reduced the differentiation of the preadipocytes 3T3L1 in a concentration-dependent manner | –
CCN1C(=O)C(O)(c2c[nH]c3ccccc23)c2cc(Br)ccc21 (stereo not drawn) [B544, 5′-Bromo-1′-ethyl-3′-hydroxy-1′,3′-dihydro-1H,2′H-3,3′-biindol-2′-one] | reduced the differentiation of the preadipocytes 3T3L1 in a concentration-dependent manner | –
Cc1ccc(CN2C(=O)C(O)(c3c[nH]c4ccccc34)c3ccccc32)cc1 (stereo not drawn) [B545, 3′-Hydroxy-1′-(4-methylbenzyl)-1′,3′-dihydro-1H,2′H-3,3′-biindol-2′-one] | reduced the differentiation of the preadipocytes 3T3L1 in a concentration-dependent manner | –
O=C1N(Cc2ccc(Cl)cc2)c2ccccc2C1(O)c1c[nH]c2ccccc12 (stereo not drawn) [B546, 1′-(4-Chlorobenzyl)-3′-hydroxy-1′,3′-dihydro-1H,2′H-3,3′-biindol-2′-one] | reduced the differentiation of the preadipocytes 3T3L1 in a concentration-dependent manner | –
Cc1[nH]c2ccccc2c1C1(O)C(=O)N(CCc2ccccc2)c2ccc(Cl)cc21 (stereo not drawn) [B547, 5′-Chloro-3′-hydroxy-2-methyl-1′-(2-phenylethyl)-1′,3′-dihydro-1H,2′H-3,3′-biindol-2′-one] | reduced the differentiation of the preadipocytes 3T3L1 in a concentration-dependent manner | –
Cc1ccc(C)c(CN2C(=O)C(O)(c3c(C)[nH]c4ccccc34)c3ccccc32)c1 (stereo not drawn) [B549, 1′-(2,5-Dimethylbenzyl)-3′-hydroxy-2-methyl-1′,3′-dihydro-1H,2′H-3,3′-biindol-2′-one] | reduced the differentiation of the preadipocytes 3T3L1 in a concentration-dependent manner | –
Cc1[nH]c2ccccc2c1C1(O)C(=O)N(Cc2cccs2)c2ccccc21 (stereo not drawn) [B551, 3′-Hydroxy-2-methyl-1′-(2-thienylmethyl)-1′,3′-dihydro-1H,2′H-3,3′-biindol-2′-one] | reduced the differentiation of the preadipocytes 3T3L1 in a concentration-dependent manner | –
Cc1ccc(OCCN2C(=O)C(O)(c3c(C)[nH]c4ccccc34)c3ccccc32)cc1 (stereo not drawn) [B556, 3′-Hydroxy-2-methyl-1′-[2-(4-methylphenoxy)ethyl]-1′,3′-dihydro-1H,2′H-3,3′-biindol-2′-one] | reduced the differentiation of the preadipocytes 3T3L1 in a concentration-dependent manner | –
COc1ccccc1OCCN1C(=O)C(O)(c2c(C)[nH]c3ccccc23)c2ccccc21 (stereo not drawn) [B558, 3′-Hydroxy-1′-[2-(2-methoxyphenoxy)ethyl]-2-methyl-1′,3′-dihydro-1H,2′H-3,3′-biindol-2′-one] | reduced the differentiation of the preadipocytes 3T3L1 in a concentration-dependent manner | –
CC(=O)c1[nH]c2ccccc2c1C(=O)O [B561, 2-Acetyl-1H-indole-3-carboxylic acid] | reduced the differentiation of the preadipocytes 3T3L1 in a concentration-dependent manner | –
